SMILES strings stand for the structures. Values joined by “and” are separate entries in the source; they are usually repeats but may differ in a detail not shown here. Identical values can stand only once.

Test [1] deals with acute graft-versus-host disease. As to the kind of experiment: Acute graft-versus-host disease, mouse model of allogeneic bone marrow transplantation. The class given is in vivo. Particulars: 25 mg/kg intraperitoneally daily for 10 days. The text has this:
Lymph nodes, spleens, both femurs and tibias were aseptically collected from normal C57BL/6 mice (8-12 week old, female, 20-23 g), and T cells were isolated from the lymph nodes and spleens in the same manner as described in Experimental Example 2 and were re-suspended in PBS at a concentration of 8×10^7 cells/mL. The femurs and tibias were cut at the ends, and the bone marrow was flushed from femurs and tibias with RPMI medium using a syringe (21G for femur and 26G for tibia) to extract the marrow, which was then suspended and passed through a cell strainer to make a single cell suspension. The bone marrow cell suspension was centrifuged at 1200 rpm for 5 minutes, and the supernatant was removed, then the cells were added to 1 mL of ACK lysis buffer and vortexed for 1 minute, followed by washing with RPMI medium. […] The incubated cell suspension was added with 5 mL of MACS buffer, centrifuged for 5 minutes, washed, and then re-suspended in 2 mL of MACS buffer. The suspended cells were placed in the autoMACS Pro Separator, and T cells bound to the CD90.2 microbeads were removed. The separated T cell-depleted bone marrow cells (TCD-BM) were washed with PBS and re-suspended in PBS at a concentration of 1×10^8 cells/mL. Normal BDF1 mice (10-12 week old, female, 20-23 g) were irradiated with 850 rad of γ radiation using an irradiator, and then 100 μL of a graft obtained by mixing the C57BL/6 mouse T cells and the TCD-BM at a ratio of 1:1 was injected into the tail vein of the BDF1 mice. In a group treated with compound 229 of the present invention, compound 229 was completely dissolved in a Cremophor EL-ethanol mixture (1:1, v/v) in an amount corresponding to 15% (v/v) of the administration volume, after which the compound solution was diluted in PBS, and the dilution was administered intraperitoneally to each mouse at a dose of 25 mg/kg daily for 10 days from the day of the graft injection. Meanwhile, Tacrolimus that is a currently clinically used immunosuppressive agent was administered to mice of another group in the same amount as compound 229 in order to compare the inhibitory effect on acute graft-versus-host disease, and mice of a vehicle control group were administered with 200 μL of a Cremophor EL-ethanol-PBS (7.5:7.5:85, v/v/v) in the same manner as the treated groups. Then, the survival of mice was monitored daily, and the severity of GVHD was assessed twice a week with clinical GVHD scoring system for each a decrease in weight loss, hunched posture, decreased activity, fur ruffling and skin lesions. Each parameters were scored on a 3-point (0 to 2) scale.

For the next test, the system named is KMS28BM. As to the kind of experiment: Apoptosis of lymphoid malignancy cell lines: KMS28BM. The class given is cell-based. Particulars: KMS-28BM, Multiple myeloma, 24 hours, read-out: Administration Dose (mean ± SD, μmol/L) Lethal Dose 50 (Apoptosis). The protocol: Each of the acute T cell leukemia cell lines Jurkat, Molt4 and CCRF-CEM, the acute B cell leukemia cell line Raji and the […] cell lines KMS11, KMS12BM, KMS26, KMS28BM, and IM9 was re-suspended in 10% FBS-containing RPMI medium at a concentration of 1.5×10^5 cells/mL, and 200 μL of each of the cell suspensions was cultured in a flat bottom 96-well plate (Costar). The acute NK cell lymphoma cell line NK-92MI was re-suspended in α-MEM medium (supplemented with 20% FBS, 1×MEM vitamine solution, 50 μM 2-mercaptoethanol and 1× penicillin/streptomycin) at a concentration of 1.5×10^5 cells/mL, and 200 μL of the cell suspension was cultured in a flat bottom 96-well plate. The cells in each well was treated with 10 μL of each of 0.1, 0.25, 0.5, 0.75 and 1 μM of the compound diluted with RPMI medium, followed by that the cells were incubated in a 5% CO2 incubator at 37° C. for 24 hours. […]
The cells were collected, and then the apoptosis thereof was analyzed by a flow cytometer after staining with Annexin V-7-AAD. The incubated cells were collected, placed in a 5-mL FACS tube (BD Falcon) and washed with 1 mL of fluorescence activated cell sorting (FACS) buffer (1%. FBS and 0.1% sodium azaide in PBS). […] The stained cells were suspended in 0.3 mL of FACS buffer, and then analyzed by a flow cytometer. […]

The test system of a further test is Jurkat T cells. Briefly: Pro-apoptotic activity on Jurkat T cells (FITC-Annexin V / 7-AAD flow cytometry). The class given is cell-based. Particulars: Homo sapiens, 72 hours, cells stained with FITC-Annexin V and 7-AAD among total cells, read-out: Cell Apoptosis Effect to Jurkat T Cell (% in 5 μM). In outline:
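Jurkat cells at 1.5×10^5 cells/mL in RPMI/10% FBS treated with compounds at […] or 5 μM final for 72 h at 37° C, vehicle containing 1% DMSO. Stained with FITC-Annexin V and 7-AAD for 15 min at room temperature in pH 7.4 Hepes binding buffer. Apoptosis = % double-stained cells by flow cytometry.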

Another test relates to IM9. As to the kind of experiment: Apoptosis of lymphoid malignancy cell lines: IM9. It is filed as cell-based. Particulars: Homo sapiens, IM-9, 24 h, read-out: Administration Dose (mean ± SD, μmol/L) Lethal Dose 50 (Apoptosis). As to the method:
Each of the acute T cell leukemia cell lines Jurkat, Molt4 and CCRF-CEM, the acute B cell leukemia cell line Raji and the […] cell lines KMS11, KMS12BM, KMS26, KMS28BM, and IM9 was re-suspended in 10% FBS-containing RPMI medium at a concentration of 1.5×10^5 cells/mL, and 200 μL of each of the cell suspensions was cultured in a flat bottom 96-well plate (Costar). The acute NK cell lymphoma cell line NK-92MI was re-suspended in α-MEM medium (supplemented with 20% FBS, 1×MEM vitamine solution, 50 μM 2-mercaptoethanol and 1× penicillin/streptomycin) at a concentration of 1.5×10^5 cells/mL, and 200 μL of the cell suspension was cultured in a flat bottom 96-well plate. The cells in each well was treated with 10 μL of each of 0.1, 0.25, 0.5, 0.75 and 1 μM of the compound diluted with RPMI medium, followed by that the cells were incubated in a 5% CO2 incubator at 37° C. for 24 hours. In a vehicle control group, cells were treated with 10 μL of medium containing 0.05% dimetylsulfoxide (DMSO, Sigma).
The cells were collected, and then the apoptosis thereof was analyzed by a flow cytometer after staining with Annexin V-7-AAD. The incubated cells were collected, placed in a 5-mL FACS tube (BD Falcon) and washed with 1 mL of fluorescence activated cell sorting (FACS) buffer (1%. FBS and 0.1% sodium azaide in PBS). The cells were re-suspended in 0.1 mL of FACS buffer, followed by that the cells were treated and stained with phycoerythrin-Annexin V at room temperature for 10 minutes. After 10 minutes of staining, the cells were treated and stained with 7-AAD at room temperature for 5 minutes. The stained cells were suspended in 0.3 mL of FACS buffer, and then analyzed by a flow cytometer. […] Thus, compounds 065, 108, 229 and 457 of the present invention can be used as a novel anti-lymphoid malignancy drug.

As to `Cc1cc(C)c(OCC(=O)N/N=C/c2ccc3cc[nH]c3c2)c(C2CCOC2)c1` (stereo not drawn) [Compound 229, (E)-N′-((1H-indol-6-yl)methylene)-2-(2,4-dimethyl-6-(tetrahydrofuran-3-yl)phenoxy)acetohydrazide], in test [1], the “severity of GVHD (clinical scoring system)” value was “slight symptoms of GVHD”. Further, the survival rate in test [1] (final (day 70), vehicle 10%) was found to be 80%. In addition, the “mouse death, days after cell transplantation” value in test [1] (vehicle from 29 days) is 35 days and 46 days. For the same compound, the results for the EC50 with KMS28BM and with IM9 were 0.49 ± 0.08 µmol/L and 0.9 ± 0.03 µmol/L, respectively. The cytotoxicity at 5 µM in the test with Jurkat T cells came to 100%.

Source of the values: patent US9447083B2, “N-acylhydrazone derivatives for selective T cell inhibitor and anti-lymphoid malignancy drug” (CHONG KUN DANG PHARMACEUTICAL CORP., priority 2012, dated 2016).
